Assay results: publication PMC8869358, “High-Throughput Chemical Screening and Structure-Based Models to Predict hERG Inhibition” (Biology, 2022)
Where a name gives a salt, the structure may show the parent alone.

What follows are compounds tested against hERG (Homo sapiens, UniProt Q12809) (assay: cell-based). Conditions: (-LOG10(IC50), µM).
Sequence of hERG (Q12809 whole entry): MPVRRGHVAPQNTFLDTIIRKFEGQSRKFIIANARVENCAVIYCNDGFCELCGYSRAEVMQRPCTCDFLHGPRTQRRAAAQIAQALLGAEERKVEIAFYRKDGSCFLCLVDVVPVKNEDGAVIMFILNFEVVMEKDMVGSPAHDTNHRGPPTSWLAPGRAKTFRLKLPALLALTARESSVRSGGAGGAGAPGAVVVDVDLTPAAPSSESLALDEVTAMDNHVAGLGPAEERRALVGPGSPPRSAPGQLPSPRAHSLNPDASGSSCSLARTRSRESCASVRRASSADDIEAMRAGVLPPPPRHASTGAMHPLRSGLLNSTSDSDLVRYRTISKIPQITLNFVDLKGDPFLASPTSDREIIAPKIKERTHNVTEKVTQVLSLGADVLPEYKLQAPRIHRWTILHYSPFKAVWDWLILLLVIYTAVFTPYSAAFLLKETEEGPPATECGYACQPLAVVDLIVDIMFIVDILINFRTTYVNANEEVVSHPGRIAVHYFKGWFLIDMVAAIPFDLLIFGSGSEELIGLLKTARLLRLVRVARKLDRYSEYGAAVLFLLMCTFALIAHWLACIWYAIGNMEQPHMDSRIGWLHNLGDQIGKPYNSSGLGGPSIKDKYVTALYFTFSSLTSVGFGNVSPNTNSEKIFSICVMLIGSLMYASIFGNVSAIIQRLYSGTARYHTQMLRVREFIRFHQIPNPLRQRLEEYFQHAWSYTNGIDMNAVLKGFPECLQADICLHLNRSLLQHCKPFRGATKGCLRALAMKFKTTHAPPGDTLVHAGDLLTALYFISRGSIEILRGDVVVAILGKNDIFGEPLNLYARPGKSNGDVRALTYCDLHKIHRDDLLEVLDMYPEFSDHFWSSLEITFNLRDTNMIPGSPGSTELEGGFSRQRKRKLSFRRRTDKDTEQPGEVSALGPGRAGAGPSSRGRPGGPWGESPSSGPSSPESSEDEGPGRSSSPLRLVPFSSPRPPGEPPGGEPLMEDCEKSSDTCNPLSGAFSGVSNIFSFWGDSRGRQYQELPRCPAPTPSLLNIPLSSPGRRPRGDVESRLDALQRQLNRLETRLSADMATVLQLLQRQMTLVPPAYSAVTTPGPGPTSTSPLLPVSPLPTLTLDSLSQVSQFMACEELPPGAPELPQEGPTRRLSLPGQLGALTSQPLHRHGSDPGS
`c1ccc(Nc2ccc(Nc3ccccc3)cc2)cc1` [N,N'-Diphenyl-p-phenylenediamine] gave an IC50 of 41 µM. Work on `OCCN1CCN(CC/C=C2/c3ccccc3Sc3ccc(C(F)(F)F)cc32)CC1` [cis-Flupentixol] yielded an IC50 of 1.69 µM. `C/C(=C(/OCCOc1ccc(Cl)cc1)c1ccc(Cl)cc1Cl)n1ccnc1` [Omoconazole] was tested, and the IC50 was 8.17 µM. For `COc1ccc2c(c1OC)C(=O)O[C@H]2[C@@H]1c2cc3c(cc2CCN1C)OCO3` [(1S,9R)-beta-Hydrastine], the IC50 was 19 µM. `CCCCCCCCCCCCCCNCCO` [Myralact] gave an IC50 of 12.5 µM. In the case of `CCCCCCCCC=CCCCCCCCC1=NCCN1CCO` [2-(8-Heptadecenyl)-2-imidazoline-1-ethanol], the IC50 is reported as 11.8 µM. With `C/C=C/C=C/CCCCCCCO` [8,10-Dodecadien-1-ol] the IC50 was 22.7 µM. `O=C1CN=C(c2ccccc2)c2cc(Cl)ccc2N1CC1CC1` [Prazepam] was tested, and the IC50 was 23 µM. `c1ccc(Nc2cccc3ccccc23)cc1` [N-Phenyl-1-naphthylamine] showed an IC50 of 33.4 µM. Work on `O=P(OCC(Br)CBr)(OCC(Br)CBr)OCC(Br)CBr` (stereo not drawn) [Tris(2,3-dibromopropyl) phosphate] yielded an IC50 of 16.9 µM. `CCN(CC)CCNC(C(=O)OCCC(C)C)c1ccccc1` (stereo not drawn) [Camylofin] gave an IC50 of 6.74 µM. `CCC(OC(C)=O)C(C[C@H](C)NC)(c1ccccc1)c1ccccc1` (mixture of isomers) [L-Î±lpha-Noracetylmethadol hydrochloride] showed an IC50 of 7.53 µM. `Brc1ccccc1-c1ccccc1` [2-Bromobiphenyl] showed an IC50 of 35.5 µM. `CC[N+](CC)(CC)CCOc1ccc(/C=C/c2ccccc2)cc1` [Stilonium iodide] showed an IC50 of 8.82 µM. Compound `O=C(N[C@@H](c1ccccc1)[C@@H]1CCCCN1)c1cccc(C(F)(F)F)c1Cl` [SSR504734] has an IC50 of 50.9 µM. Work on `CN1CCN(C2=Nc3ccccc3Oc3ccc(Cl)cc32)CC1` [Loxapine succinate] yielded an IC50 of 12 µM. `CC(C)COC(=O)COc1ccc(Cl)cc1Cl` [2,4-D-isobutyl] was tested, and the IC50 was 43.6 µM. For `CCCCCCCCCCn1cc[n+](C)c1` [1-Decyl-3-methylimidazolium trifluoromethanesulfonate], the IC50 was 13.6 µM. `C[N+]1(C)CCC(=C(c2ccccc2)c2ccccc2)CC1` [Diphemanil methylsulfate] was tested, and the IC50 was 6.24 µM. `O=C1C=CC(=O)N1c1ccc(Cc2ccc(N3C(=O)C=CC3=O)cc2)cc1` [Bismaleimide] was tested, and the IC50 was 43.6 µM. Work on `CCC(C)c1cc(C(C)(C)C)c(O)c(C(C)(C)C)c1` (stereo not drawn) [4-(Butan-2-yl)-2,6-di-tert-butylphenol] yielded an IC50 of 8.54 µM. For `OCCN1CCN(CCCN2c3ccccc3Sc3ccc(C(F)(F)F)cc32)CC1` [Fluphenazine], the IC50 was 2.79 µM. Work on `CCCCCC(=O)O[C@]1(C(C)=O)CC[C@H]2[C@@H]3CCC4=CC(=O)CC[C@]4(C)[C@H]3CC[C@@]21C` [17-((1-Oxohexyl)oxy)pregn-4-ene-3,20-dione] yielded an IC50 of 22.6 µM. Work on `FC(F)(F)c1cccc(C2=CCN(CCc3ccc4ccccc4c3)CC2)c1` [Xaliproden hydrochloride] yielded an IC50 of 1.76 µM. With `N#CC1(N=NC2(C#N)CCCCC2)CCCCC1` [1,1'-Diazene-1,2-diyldicyclohexanecarbonitrile] the IC50 was 43.6 µM. With `CCCCC(CC)COC(=O)C(C#N)=C(c1ccccc1)c1ccccc1` (stereo not drawn) [2-Ethylhexyl-2-cyano-3,3-diphenylacrylate] the IC50 was 18.4 µM. `CCCCCCCC[S+]([O-])C(C)Cc1ccc2c(c1)OCO2` (stereo not drawn) [Piperonyl sulfoxide] gave an IC50 of 38.2 µM. `CCN(CC)C(=O)c1cc(S(=O)(=O)Cc2ccccc2)c(N2CCC(c3ccccc3)CC2)cc1N(CC)CCN(C)C` [HMR1171 trifluoroacetate (1:1)] gave an IC50 of 2.72 µM. Compound `CN1[C@@H]2CC[C@H]1C[C@@H](NC(=O)n1c(=O)[nH]c3ccccc31)C2` [Itasetron] has an IC50 of 21.3 µM. Compound `CC(C)(C)NC(=O)[C@@H]1C[C@@H]2CCCC[C@@H]2CN1C[C@@H](O)[C@H](Cc1ccccc1)NC(=O)[C@H](CC(N)=O)NC(=O)c1ccc2ccccc2n1` [Saquinavir mesylate] has an IC50 of 22.2 µM. Compound `Cc1ccc(-c2ccccc2)cc1` [4-Phenyltoluene] has an IC50 of 49 µM. Compound `COC(=O)C1=C(C)NC(C)=C(C(=O)OC(C)(C)CN(C)CCC(c2ccccc2)c2ccccc2)C1c1cccc([N+](=O)[O-])c1` (stereo not drawn) [Lercanidipine hydrochloride] has an IC50 of 3.25 µM. `CC(C)Nc1ccc(Nc2ccccc2)cc1` [N-Isopropyl-N'-phenyl-p-phenylenediamine] showed an IC50 of 28.5 µM. `C=C(C)CN(CC)c1c([N+](=O)[O-])cc(C(F)(F)F)cc1[N+](=O)[O-]` [Ethalfluralin] was tested, and the IC50 was 36 µM. `CCc1c(C(=O)NN2CCCCC2)nn(-c2ccc(Cl)cc2Cl)c1-c1ccc(Br)cc1` [Surinabant] showed an IC50 of 6.92 µM. With `CCC(C)Nc1c([N+](=O)[O-])cc(C(C)(C)C)cc1[N+](=O)[O-]` (stereo not drawn) [Butralin] the IC50 was 23.6 µM. In the case of `c1ccc(C(O[C@H]2CCCN(CCc3ccc4c(c3)OCO4)C2)c2ccccc2)cc1` [Zamifenacin fumarate], the IC50 is reported as 0.535 µM. `O=C1C2(Cl)C3(Cl)C4(Cl)C(Cl)(Cl)C5(Cl)C3(Cl)C1(Cl)C5(Cl)C24Cl` (stereo not drawn) [Kepone] was tested, and the IC50 was 12.7 µM. In the case of `Cc1ccc(-n2nc(C(C)(C)C)cc2NC(=O)Nc2ccc(OCCN3CCOCC3)c3ccccc23)cc1` [Doramapimod], the IC50 is reported as 20.1 µM. Work on `O=S1(=O)OC[C@@H]2[C@H](CO1)[C@]1(Cl)C(Cl)=C(Cl)[C@@]2(Cl)C1(Cl)Cl` [Endosulfan sulfate] yielded an IC50 of 16.1 µM. `CCCCOCCOC(=O)COc1cc(Cl)c(Cl)cc1Cl` [2,4,5-T-butotyl] was tested, and the IC50 was 23.2 µM. For `ClC(Cl)(Cl)c1ccc(C(Cl)(Cl)Cl)cc1` [1,4-Bis(trichloromethyl)benzene], the IC50 was 14.2 µM. For `O=C(CCN1CCC(c2ccccc2)C1)c1ccc2c(c1)OCCO2` (stereo not drawn) [Proroxan], the IC50 was 17.6 µM. In the case of `CC1(c2ccc(Oc3ccccc3)cc2)OC(=O)N(Nc2ccccc2)C1=O` (stereo not drawn) [Famoxadone], the IC50 is reported as 22.9 µM. With `CN(C)C(=O)NC1(c2ccccc2)CCN(CCC[C@]2(c3ccc(Cl)c(Cl)c3)CCCN(C(=O)c3ccccc3)C2)CC1` [SSR146977] the IC50 was 1.71 µM. Work on `CC(C(O)c1ccccc1)N(C)C/C=C/c1ccccc1` (stereo not drawn) [Cinnamedrine] yielded an IC50 of 12 µM. Work on `ClC1=C(Cl)[C@]2(Cl)[C@H]3[C@H]([C@@H]4C=C[C@H]3C4)[C@@]1(Cl)C2(Cl)Cl` [Aldrin] yielded an IC50 of 23.6 µM. `Cc1cccc(Nc2ccccc2)c1` [3-Methyl-N-phenylaniline] gave an IC50 of 52.9 µM. Work on `CCCCN1C(=O)[C@@H]([C@H](O)C2CCCCC2)NC(=O)C12CCN(Cc1ccc(Oc3ccc(C(=O)O)cc3)cc1)CC2` [Aplaviroc hydrochloride] yielded an IC50 of 17.4 µM. For `Cc1cc(Cc2cc(C)cc(C(C)(C)C)c2O)c(O)c(C(C)(C)C)c1` [2,2'-Methylenebis(4-methyl-6-tert-butylphenol)], the IC50 was 31.1 µM. `CCCCCCCCCCCCCC[N+](C)(C)Cc1ccccc1` [Benzyldimethyltetradecylammonium chloride dihydrate] gave an IC50 of 2.05 µM. With `CN(C)CCN(Cc1ccccc1)c1ccccn1` [Tripelennamine citrate] the IC50 was 12.7 µM. For `CCCCNc1ccc(C(=O)OCCN(CC)CC)cc1` [Depolipon], the IC50 was 19 µM. For `COC(=O)[C@@H]1[C@H]2C[C@H]3c4[nH]c5ccccc5c4CCN3C[C@@H]2CC[C@@H]1O` [Yohimbine], the IC50 was 23.9 µM. Work on `N#CC(C#N)=NNc1cccc(Cl)c1` [Carbonyl cyanide chlorophenylhydrazone] yielded an IC50 of 36 µM. `CCCC(C(=O)OCCN(CC)CC)(c1ccccc1)c1ccccc1` [Proadifen hydrochloride] was tested, and the IC50 was 7.28 µM. Work on `C[C@]12CC[C@H]3[C@@H](CCC4=CC(=O)CC[C@@H]43)[C@@H]1CC[C@@H]2OC(=O)CCc1ccco1` [Nandrolone furylpropionate] yielded an IC50 of 12 µM. With `COc1ccc(CCN(C)CCCN2CCc3cc(OC)c(OC)cc3CC2=O)cc1OC` [Zatebradine hydrochloride] the IC50 was 10.1 µM. Compound `O=[N+]([O-])c1ccccc1Nc1ccccc1` [2-Nitrodiphenylamine] has an IC50 of 48.7 µM. `CCCCCCCCCCCCCCCCCC[n+]1ccn(C)c1` [1-Methyl-3-octadecylimidazolium hexafluorophosphate] was tested, and the IC50 was 4.02 µM. `Cl[C@H]1[C@H](Cl)[C@@H](Cl)[C@H](Cl)[C@H](Cl)[C@H]1Cl` [alpha-1,2,3,4,5,6-Hexachlorocyclohexane] was tested, and the IC50 was 49.4 µM. Compound `Oc1cc(Cl)ccc1Oc1ccc(Cl)cc1Cl` [Triclosan] has an IC50 of 45.2 µM. `CCOC(=O)c1cn2nc(OP(=S)(OCC)OCC)cc2nc1C` [Pyrazophos] was tested, and the IC50 was 51.9 µM. `CCCCCCC(C)OC(=O)COc1nc(F)c(Cl)c(N)c1Cl` (stereo not drawn) [Fluroxypyr-meptyl] was tested, and the IC50 was 38.9 µM. `COc1c(C(C)(C)C)cc([N+](=O)[O-])c(C)c1[N+](=O)[O-]` [Musk ambrette] was tested, and the IC50 was 20.5 µM. Compound `CCCCCCCCCCCC[N+](C)(C)C` [Dodecyltrimethylammonium chloride] has an IC50 of 18 µM. For `CCc1cc(SCc2sc(-c3ccc(C(F)(F)F)cc3)nc2CN2CCN(c3ccc(OC)cc3)CC2)ccc1OCC(=O)O` [PharmaGSID_47315], the IC50 was 3.34 µM. `CCC(C)c1cc([N+](=O)[O-])cc([N+](=O)[O-])c1OC(=O)C=C(C)C` (stereo not drawn) [Binapacryl] showed an IC50 of 30.9 µM. Compound `C[C@@H]1CC[C@H]2C(C)(C)[C@H]3C[C@@]12CC[C@@]3(C)O` [(+)-Cedrol] has an IC50 of 43.6 µM. Compound `Cc1nnc2n1-c1sc(CCc3ccc(CC(C)C)cc3)cc1C(c1ccccc1Cl)=NC2C` (stereo not drawn) [Israpafant] has an IC50 of 19 µM. `O=[N+]([O-])c1ccc(Oc2ccc(C(F)(F)F)cc2[N+](=O)[O-])cc1` [Fluorodifen] gave an IC50 of 7.76 µM. `O=C(c1ccc(F)cc1)C1CCN(CCn2c(=O)[nH]c3ccccc3c2=O)CC1` [Ketanserin] showed an IC50 of 2.68 µM. In the case of `CCCCCCCCCCCCCCCC[N+](C)(C)CCN(Cc1ccc(OC)cc1)c1ncccn1` [Thonzonium bromide], the IC50 is reported as 0.409 µM. `CCCCCCCC(=O)Oc1c(Br)cc(C#N)cc1Br` [Bromoxynil octanoate] gave an IC50 of 26.4 µM. `CCc1nn(C)c(C(=O)NCc2ccc(C(C)(C)C)cc2)c1Cl` [Tebufenpyrad] was tested, and the IC50 was 24.5 µM. Work on `Cc1ccc(S(=O)(=O)C(I)I)cc1` [Diiodomethyl 4-methylphenyl sulfone] yielded an IC50 of 46.2 µM. `Cc1nc(-c2ccc3c(c2)CCN(CCC2CCC(NC(=O)/C=C/c4ccc(F)cc4)CC2)CC3)no1` (stereo not drawn) [SB413217A] showed an IC50 of 1.02 µM. In the case of `CCC1=C[C@@H]2CN(C1)Cc1c([nH]c3ccccc13)[C@@](C(=O)OC)(c1cc3c(cc1OC)N(C)[C@H]1[C@@](O)(C(=O)OC)[C@H](OC(C)=O)[C@]4(CC)C=CCN5CC[C@]31[C@@H]54)C2` [Vinorelbine tartrate], the IC50 is reported as 6.49 µM.
